ChEMBL document CHEMBL5653631, “A Potent and Selective ULK1 Inhibitor Suppresses Autophagy and Sensitizes Cancer Cells to Nutrient Stress” (iScience, 2018)
One block for each molecule: values may come before it.

What was measured:
[1] = target: Tyrosine-protein kinase Lyn (Homo sapiens) (UniProt P07948); experiment: Inhibition of human recombinant LYN at 500 nM in presence of ATP by radiometric assay relative to control
[2] = target: T1, Dual specificity mitogen-activated protein kinase kinase 6 (Homo sapiens) (UniProt P52564); experiment: Inhibition of human recombinant MAP2K6 at 500 nM in presence of ATP by radiometric assay relative to control
T1 sequence (whole entry): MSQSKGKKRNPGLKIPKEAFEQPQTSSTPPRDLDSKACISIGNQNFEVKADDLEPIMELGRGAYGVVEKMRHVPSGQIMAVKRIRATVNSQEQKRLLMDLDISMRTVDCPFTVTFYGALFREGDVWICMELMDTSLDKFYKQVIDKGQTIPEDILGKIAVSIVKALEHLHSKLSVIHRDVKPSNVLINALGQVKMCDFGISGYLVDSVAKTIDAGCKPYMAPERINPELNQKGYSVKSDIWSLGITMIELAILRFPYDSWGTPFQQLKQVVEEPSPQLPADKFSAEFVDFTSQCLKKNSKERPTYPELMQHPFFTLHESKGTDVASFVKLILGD

[3] = target: RAF proto-oncogene serine/threonine-protein kinase (Homo sapiens) (UniProt P04049); experiment: Inhibition of human recombinant RAF1 at 500 nM related to control ULK1
[4] = target: Proto-oncogene tyrosine-protein kinase ROS (Homo sapiens) (UniProt P08922); experiment: Inhibition of human recombinant ROS at 15 nM in presence of ATP by radiometric assay relative to control
[5] = target: T2, Mitogen-activated protein kinase kinase kinase 5 (Homo sapiens) (UniProt Q99683); experiment: Inhibition of human recombinant MAP3K5 at 15 nM related to control ULK1
T2 sequence (whole entry): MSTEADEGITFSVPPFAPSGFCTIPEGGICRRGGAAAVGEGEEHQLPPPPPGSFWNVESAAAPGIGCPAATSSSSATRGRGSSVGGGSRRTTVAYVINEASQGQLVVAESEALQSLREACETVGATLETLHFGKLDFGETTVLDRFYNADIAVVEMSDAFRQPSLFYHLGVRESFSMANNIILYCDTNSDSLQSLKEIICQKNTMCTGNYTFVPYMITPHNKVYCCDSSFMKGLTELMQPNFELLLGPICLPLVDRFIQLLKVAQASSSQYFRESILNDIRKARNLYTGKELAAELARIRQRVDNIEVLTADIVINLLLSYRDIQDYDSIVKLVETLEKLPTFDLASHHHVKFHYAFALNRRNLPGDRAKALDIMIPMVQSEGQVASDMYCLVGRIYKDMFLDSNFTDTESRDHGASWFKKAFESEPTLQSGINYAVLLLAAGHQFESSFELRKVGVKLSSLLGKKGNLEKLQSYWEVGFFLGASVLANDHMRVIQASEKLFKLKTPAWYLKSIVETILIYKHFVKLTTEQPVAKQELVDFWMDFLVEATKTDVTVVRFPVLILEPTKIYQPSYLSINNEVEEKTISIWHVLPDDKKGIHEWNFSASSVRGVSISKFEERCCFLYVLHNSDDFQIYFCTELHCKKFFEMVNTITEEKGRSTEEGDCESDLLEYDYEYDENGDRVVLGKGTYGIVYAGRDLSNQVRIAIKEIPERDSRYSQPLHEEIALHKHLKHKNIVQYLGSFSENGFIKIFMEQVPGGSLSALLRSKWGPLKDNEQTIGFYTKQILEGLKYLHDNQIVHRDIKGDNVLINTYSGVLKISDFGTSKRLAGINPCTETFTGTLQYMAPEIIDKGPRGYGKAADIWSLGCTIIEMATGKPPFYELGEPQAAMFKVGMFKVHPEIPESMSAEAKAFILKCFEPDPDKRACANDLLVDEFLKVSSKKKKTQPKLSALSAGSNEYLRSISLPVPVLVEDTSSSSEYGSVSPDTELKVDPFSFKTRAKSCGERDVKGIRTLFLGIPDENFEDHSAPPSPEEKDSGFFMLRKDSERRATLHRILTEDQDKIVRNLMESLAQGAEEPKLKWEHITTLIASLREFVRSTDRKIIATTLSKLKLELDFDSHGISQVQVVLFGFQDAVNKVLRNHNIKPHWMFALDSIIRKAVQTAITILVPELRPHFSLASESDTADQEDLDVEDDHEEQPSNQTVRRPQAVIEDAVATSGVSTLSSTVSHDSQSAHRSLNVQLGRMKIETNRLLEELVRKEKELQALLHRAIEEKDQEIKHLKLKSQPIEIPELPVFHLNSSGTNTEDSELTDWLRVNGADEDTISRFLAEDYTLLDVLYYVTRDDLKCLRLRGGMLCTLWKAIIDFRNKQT

[6] = target: T3, Inhibitor of nuclear factor kappa-B kinase subunit beta (Homo sapiens) (UniProt O14920); experiment: Inhibition of human recombinant IKKb at 40 nM related to control ULK1
T3 sequence (whole entry): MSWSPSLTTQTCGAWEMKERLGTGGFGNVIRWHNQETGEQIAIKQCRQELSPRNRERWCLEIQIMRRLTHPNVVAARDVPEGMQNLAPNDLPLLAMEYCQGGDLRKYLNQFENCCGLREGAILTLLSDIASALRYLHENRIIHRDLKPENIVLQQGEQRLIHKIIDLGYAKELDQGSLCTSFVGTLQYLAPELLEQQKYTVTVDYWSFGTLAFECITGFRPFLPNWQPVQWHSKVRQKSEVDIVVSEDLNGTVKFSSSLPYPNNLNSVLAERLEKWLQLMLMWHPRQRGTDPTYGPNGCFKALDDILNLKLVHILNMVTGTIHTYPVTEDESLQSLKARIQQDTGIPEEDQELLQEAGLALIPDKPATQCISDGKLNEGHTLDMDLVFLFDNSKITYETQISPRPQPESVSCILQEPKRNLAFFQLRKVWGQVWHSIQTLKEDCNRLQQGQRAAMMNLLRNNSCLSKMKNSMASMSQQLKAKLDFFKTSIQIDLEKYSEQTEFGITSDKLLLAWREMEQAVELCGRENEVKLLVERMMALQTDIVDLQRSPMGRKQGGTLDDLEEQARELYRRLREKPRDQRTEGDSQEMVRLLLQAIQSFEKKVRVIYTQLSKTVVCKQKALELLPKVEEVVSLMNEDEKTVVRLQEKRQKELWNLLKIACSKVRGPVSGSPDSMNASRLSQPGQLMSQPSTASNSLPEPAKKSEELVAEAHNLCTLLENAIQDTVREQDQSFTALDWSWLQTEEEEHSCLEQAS

[7] = target: Serine/threonine-protein kinase Nek6 (Homo sapiens) (UniProt Q9HC98); experiment: Inhibition of human recombinant NEK6 at 40 nM in presence of ATP by radiometric assay relative to control
[8] = target: Serine/threonine-protein kinase PAK 1 (Homo sapiens) (UniProt Q13153); experiment: Inhibition of human recombinant PAK1 at 40 nM in presence of ATP by radiometric assay relative to control
[9] = target: Mitogen-activated protein kinase 1 (Homo sapiens) (UniProt P28482); experiment: Inhibition of human recombinant Erk2 at 40 nM in presence of ATP by radiometric assay relative to control
Chain of Mitogen-activated protein kinase 1 (Homo sapiens) (P28482 whole entry): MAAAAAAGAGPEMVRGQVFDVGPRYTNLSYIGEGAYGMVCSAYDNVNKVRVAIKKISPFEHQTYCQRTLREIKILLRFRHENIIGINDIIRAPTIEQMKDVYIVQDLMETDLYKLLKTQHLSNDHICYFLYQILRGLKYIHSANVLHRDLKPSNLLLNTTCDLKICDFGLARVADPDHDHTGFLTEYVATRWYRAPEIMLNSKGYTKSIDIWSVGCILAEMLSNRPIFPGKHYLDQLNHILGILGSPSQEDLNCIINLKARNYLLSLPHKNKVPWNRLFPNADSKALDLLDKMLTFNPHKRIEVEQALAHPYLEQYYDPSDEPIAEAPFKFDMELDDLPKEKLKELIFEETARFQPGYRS

Chain of Proto-oncogene tyrosine-protein kinase ROS (Homo sapiens) (P08922 whole entry): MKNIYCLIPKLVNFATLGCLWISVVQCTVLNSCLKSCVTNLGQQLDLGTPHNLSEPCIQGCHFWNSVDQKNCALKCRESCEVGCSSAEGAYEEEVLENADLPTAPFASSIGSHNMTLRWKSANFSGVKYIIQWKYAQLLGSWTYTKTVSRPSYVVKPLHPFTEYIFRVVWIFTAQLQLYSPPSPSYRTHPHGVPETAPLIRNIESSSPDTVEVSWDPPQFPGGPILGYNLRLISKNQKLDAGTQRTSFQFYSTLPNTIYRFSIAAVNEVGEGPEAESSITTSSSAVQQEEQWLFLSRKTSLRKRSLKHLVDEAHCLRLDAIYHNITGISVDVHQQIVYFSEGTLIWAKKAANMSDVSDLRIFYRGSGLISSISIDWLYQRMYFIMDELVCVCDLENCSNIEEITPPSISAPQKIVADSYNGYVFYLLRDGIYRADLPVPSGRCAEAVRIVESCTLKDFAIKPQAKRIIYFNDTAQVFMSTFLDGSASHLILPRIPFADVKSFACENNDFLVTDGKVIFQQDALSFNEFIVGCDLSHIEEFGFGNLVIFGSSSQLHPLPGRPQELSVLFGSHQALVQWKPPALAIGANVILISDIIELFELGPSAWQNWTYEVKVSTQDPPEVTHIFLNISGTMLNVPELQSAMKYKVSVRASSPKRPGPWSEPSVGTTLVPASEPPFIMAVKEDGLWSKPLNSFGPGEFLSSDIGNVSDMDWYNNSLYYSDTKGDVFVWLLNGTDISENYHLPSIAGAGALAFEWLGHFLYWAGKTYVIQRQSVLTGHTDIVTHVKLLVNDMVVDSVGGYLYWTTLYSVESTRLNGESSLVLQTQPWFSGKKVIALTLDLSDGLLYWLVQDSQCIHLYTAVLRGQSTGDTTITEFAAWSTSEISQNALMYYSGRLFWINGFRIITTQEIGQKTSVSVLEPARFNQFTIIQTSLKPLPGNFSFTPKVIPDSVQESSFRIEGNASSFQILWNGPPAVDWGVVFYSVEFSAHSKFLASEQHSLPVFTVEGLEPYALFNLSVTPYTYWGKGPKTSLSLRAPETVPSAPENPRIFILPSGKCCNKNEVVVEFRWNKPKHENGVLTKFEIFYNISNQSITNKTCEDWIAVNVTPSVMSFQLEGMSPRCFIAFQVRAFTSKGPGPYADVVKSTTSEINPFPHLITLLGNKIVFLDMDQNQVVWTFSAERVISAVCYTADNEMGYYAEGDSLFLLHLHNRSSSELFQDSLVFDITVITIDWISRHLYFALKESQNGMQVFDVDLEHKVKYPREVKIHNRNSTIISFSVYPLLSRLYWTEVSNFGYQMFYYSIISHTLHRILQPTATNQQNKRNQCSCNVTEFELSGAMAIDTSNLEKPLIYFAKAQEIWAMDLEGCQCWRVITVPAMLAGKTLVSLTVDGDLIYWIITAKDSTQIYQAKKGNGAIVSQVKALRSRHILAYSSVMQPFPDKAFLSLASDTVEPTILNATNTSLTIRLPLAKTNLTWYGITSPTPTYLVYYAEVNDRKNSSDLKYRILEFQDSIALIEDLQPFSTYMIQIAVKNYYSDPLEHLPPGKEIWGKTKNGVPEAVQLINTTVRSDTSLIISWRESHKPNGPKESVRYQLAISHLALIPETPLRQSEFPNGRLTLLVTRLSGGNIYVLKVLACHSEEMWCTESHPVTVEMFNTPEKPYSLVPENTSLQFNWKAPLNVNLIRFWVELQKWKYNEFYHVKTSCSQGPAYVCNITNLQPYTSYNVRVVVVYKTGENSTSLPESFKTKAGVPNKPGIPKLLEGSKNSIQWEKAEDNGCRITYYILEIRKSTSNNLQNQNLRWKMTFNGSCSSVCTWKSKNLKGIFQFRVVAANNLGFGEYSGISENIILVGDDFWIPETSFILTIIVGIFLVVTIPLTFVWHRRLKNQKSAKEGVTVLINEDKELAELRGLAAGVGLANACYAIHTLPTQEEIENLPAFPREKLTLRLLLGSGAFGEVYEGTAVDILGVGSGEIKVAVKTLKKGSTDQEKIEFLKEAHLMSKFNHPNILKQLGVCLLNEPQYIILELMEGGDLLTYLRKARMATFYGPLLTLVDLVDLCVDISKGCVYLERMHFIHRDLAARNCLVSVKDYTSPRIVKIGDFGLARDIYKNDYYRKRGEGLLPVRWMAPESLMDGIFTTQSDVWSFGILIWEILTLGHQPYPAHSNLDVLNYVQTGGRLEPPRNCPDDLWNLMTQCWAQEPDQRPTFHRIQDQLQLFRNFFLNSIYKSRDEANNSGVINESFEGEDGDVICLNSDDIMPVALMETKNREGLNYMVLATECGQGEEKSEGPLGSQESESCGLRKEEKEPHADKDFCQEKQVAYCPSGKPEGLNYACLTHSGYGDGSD
Chain of RAF proto-oncogene serine/threonine-protein kinase (Homo sapiens) (P04049 whole entry): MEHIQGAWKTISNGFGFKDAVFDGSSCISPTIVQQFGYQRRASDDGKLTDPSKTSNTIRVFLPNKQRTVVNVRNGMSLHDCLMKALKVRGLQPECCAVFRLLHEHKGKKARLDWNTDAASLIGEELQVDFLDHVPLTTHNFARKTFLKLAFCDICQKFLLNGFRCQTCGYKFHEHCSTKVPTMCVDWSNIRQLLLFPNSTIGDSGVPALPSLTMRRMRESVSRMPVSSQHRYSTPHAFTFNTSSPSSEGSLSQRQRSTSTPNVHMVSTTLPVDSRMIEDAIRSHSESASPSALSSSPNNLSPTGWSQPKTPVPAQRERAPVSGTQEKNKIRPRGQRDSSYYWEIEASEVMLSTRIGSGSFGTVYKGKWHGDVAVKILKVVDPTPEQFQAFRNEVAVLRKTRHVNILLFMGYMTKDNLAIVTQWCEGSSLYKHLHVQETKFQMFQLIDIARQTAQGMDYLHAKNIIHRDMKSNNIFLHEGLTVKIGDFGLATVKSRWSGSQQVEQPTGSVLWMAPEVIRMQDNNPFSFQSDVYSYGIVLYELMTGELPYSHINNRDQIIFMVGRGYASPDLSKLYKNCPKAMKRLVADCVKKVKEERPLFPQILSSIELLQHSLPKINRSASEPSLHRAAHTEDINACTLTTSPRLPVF
Chain of Serine/threonine-protein kinase PAK 1 (Homo sapiens) (Q13153 whole entry, looked up): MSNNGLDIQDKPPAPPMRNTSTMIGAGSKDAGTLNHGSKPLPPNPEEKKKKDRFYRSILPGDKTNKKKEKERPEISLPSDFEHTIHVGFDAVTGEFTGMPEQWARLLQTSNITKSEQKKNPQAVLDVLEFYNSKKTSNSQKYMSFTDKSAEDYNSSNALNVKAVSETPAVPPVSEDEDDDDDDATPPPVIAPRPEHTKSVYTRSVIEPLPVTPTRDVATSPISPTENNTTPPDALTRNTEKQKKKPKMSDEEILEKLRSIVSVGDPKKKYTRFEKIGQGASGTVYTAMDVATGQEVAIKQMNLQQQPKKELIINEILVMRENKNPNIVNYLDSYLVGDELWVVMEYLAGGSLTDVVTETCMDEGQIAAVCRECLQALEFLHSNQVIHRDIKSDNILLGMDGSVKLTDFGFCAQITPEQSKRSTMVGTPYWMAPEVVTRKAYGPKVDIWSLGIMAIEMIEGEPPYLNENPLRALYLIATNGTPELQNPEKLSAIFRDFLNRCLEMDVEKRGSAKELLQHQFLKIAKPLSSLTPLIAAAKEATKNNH
Chain of Serine/threonine-protein kinase Nek6 (Homo sapiens) (Q9HC98 whole entry): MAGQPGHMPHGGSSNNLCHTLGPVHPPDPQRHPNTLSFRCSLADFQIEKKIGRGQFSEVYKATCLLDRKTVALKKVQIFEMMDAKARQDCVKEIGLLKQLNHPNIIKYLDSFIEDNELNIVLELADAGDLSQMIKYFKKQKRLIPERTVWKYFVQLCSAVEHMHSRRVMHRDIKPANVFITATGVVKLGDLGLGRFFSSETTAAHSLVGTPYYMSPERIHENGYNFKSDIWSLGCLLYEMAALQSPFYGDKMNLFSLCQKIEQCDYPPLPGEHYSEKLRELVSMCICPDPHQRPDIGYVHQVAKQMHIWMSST
Chain of Tyrosine-protein kinase Lyn (Homo sapiens) (P07948 2-512 limits assumed): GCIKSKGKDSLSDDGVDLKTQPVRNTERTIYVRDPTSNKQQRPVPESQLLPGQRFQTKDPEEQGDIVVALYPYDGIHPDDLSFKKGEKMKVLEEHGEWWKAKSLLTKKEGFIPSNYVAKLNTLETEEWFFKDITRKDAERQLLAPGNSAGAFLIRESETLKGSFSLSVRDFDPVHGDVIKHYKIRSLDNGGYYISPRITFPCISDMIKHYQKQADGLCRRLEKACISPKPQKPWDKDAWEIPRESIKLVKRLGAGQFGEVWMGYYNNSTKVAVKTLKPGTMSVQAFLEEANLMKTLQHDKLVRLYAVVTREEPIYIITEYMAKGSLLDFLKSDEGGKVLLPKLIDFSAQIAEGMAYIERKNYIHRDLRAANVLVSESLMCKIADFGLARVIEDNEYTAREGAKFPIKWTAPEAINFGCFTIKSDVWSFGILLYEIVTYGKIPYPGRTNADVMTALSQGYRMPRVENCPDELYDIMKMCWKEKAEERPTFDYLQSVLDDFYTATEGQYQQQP

inhibition [1]: 30%
inhibition [2]: 5%
fold change (FC) [3]: 0.15
SMILES: CNC(=O)c1ccccc1Oc1nc(Nc2cc(OC)c(OC)c(OC)c2)ncc1Br

inhibition [4]: 0%
fold change (FC) [5]: 0
SMILES: CC(C)[C@H](NC(=O)c1cc(-c2cnn3cc(-c4ccc(OCCN5CCCCC5)cc4)cnc23)cs1)C(F)(F)F

fold change (FC) [6]: 0
inhibition [7]: 0%
inhibition [8]: 0%
inhibition [9]: 0%
SMILES: O=C(N[C@@H](C1CC1)C(F)(F)F)c1cc(-c2cnn3cc(-c4ccc(F)cc4)cnc23)cs1
